The text below walks through data of patent US20240366785A1 (priority 2021, published 2024).

For this assay, the system named is human patients having XLMTM. Kind of assay: Ursodiol treatment of hyperbilirubinemia after resamirigene bilparvovec. Type of assay: in vivo. The procedure: A subject (115-9001) experienced an SAE of Grade 3 cholestasis which required hospitalization. The subject's medical history included cholestasis and elevated total bilirubin. Approximately 5 weeks after dosing, the subject had elevated direct bilirubin levels (Grade 2) which was treated with ursodiol and resolved 6 weeks later. Approximately 11 weeks after dosing, the subject experienced cholestasis and decision was made to hospitalize the subject 9 days after cholestasis was reported. The cholestasis resolved after approximately 12 weeks. Cholestasis was considered by the Investigator to be possibly related to resamirigene bilparvovec infusion. The subject's baseline history of cholestasis supports underlying disease as causal factor.
Cholestasis and hyperbilirubinemia are considered identified risks associated with resamirigene bilparvovec. Therefore, for subjects receiving resamirigene bilparvovec, ursodiol is recommended as prophylaxis for possible cholestatic syndromes. Ursodiol (ursodeoxycholic acid) is an enterally administered hydrophilic bile acid that can decrease the hydrophobic bile acid content within bile. […]

On to `C[C@H](CCC(=O)O)[C@H]1CC[C@H]2[C@@H]3[C@@H](O)C[C@@H]4C[C@H](O)CC[C@]4(C)[C@H]3CC[C@]12C` [ursodiol, Ursodeoxycholic acid], for which the “Transient hyperbilirubinemia following resamirigene bilparvovec: response to ursodiol” value (in some cases) is “responsive”. For the same compound, under “subject 115-9001, after resamirigene bilparvovec 3.0×10^14 vg/kg”, the “Elevated direct bilirubin (Grade 2) treated with ursodiol: time to resolution” value is 6 weeks.
